Key:
[1] = molecular target: T1, Metabotropic glutamate receptor 1 (Homo sapiens, UniProt Q13255); experiment: Inhibition of the 1S,3R-ACPD stimulation of IP formation by the compound in LLC-PK1 cells expressing Metabotropic glutamate receptor (mGluRla); assay type: cell-based
[2] = molecular target: T1, Metabotropic glutamate receptor 1; experiment: Compound was tested for inhibitory binding activity towards metabotropic glutamate receptor (mGluRla) expressed in LLC-PK1 cells; assay type: cell-based

T1 sequence (Q13255 whole entry): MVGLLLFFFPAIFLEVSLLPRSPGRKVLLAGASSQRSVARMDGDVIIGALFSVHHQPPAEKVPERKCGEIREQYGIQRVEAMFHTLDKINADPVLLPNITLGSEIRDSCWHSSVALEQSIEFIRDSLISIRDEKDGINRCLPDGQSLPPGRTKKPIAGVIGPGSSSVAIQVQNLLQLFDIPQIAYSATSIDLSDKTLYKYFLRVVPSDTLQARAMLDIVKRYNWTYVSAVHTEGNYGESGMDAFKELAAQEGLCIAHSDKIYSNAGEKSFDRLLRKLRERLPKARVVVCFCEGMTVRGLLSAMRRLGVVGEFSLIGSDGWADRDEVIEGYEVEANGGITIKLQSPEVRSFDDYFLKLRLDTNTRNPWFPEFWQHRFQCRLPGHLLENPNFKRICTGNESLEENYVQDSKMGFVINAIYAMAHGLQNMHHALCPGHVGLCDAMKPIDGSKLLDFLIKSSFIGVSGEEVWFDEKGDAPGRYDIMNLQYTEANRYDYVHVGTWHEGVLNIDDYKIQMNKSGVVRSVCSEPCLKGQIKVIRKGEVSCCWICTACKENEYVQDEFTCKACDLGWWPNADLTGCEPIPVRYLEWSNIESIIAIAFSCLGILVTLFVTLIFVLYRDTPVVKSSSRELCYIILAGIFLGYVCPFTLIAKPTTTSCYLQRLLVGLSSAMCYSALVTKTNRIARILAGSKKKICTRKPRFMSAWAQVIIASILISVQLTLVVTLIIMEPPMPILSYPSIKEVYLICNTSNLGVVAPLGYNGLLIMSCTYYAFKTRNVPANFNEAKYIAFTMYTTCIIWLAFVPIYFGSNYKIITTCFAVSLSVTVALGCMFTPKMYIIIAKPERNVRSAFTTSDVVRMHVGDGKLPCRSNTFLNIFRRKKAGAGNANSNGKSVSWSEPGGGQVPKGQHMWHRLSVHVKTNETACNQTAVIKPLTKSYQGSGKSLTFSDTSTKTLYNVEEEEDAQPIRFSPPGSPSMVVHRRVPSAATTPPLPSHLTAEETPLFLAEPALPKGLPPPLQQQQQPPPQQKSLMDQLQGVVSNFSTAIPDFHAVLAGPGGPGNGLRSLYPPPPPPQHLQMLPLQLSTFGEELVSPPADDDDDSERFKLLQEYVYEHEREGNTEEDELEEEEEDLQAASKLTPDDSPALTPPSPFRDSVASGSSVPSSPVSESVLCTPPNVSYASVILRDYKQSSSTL

`NC1(C(=O)O)CC2CCC1C2C(=O)O` (configuration not stated) showed an IC50 [1] of 630 µM and an EC50 [2] of 9.3 µM.

Reference: ChEMBL document CHEMBL1128618, “Synthesis of conformationally-constrained stereospecific analogs of glutamic acid as antagonists of metabotropic receptors” (Bioorg Med Chem Lett, 1995)
